# Laboratory results reported in patent US6132711A, “Enzymatic antioxidant of allene oxide for lipid peroxidation in biological systems” (Arizona Board of Regents, priority 1997, dated 2000).
# Where “and” joins values, the source holds several entries; their conditions need not be identical. Identical values can stand only once.
# B1: lipoxygenase: type V soybean lipoxygenase (Sigma #L-6632) (protein, UniProt P08170 1-839, looked up)
# Seed linoleate …: MFSAGHKIKGTVVLMPKNELEVNPDGSAVDNLNAFLGRSVSLQLISATKADAHGKGKVGKDTFLEGINTSLPTLGAGESAFNIHFEWDGSMGIPGAFYIKNYMQVEFFLKSLTLEAISNQGTIRFVCNSWVYNTKLYKSVRIFFANHTYVPSETPAPLVSYREEELKSLRGNGTGERKEYDRIYDYDVYNDLGNPDKSEKLARPVLGGSSTFPYPRRGRTGRGPTVTDPNTEKQGEVFYVPRDENLGHLKSKDALEIGTKSLSQIVQPAFESAFDLKSTPIEFHSFQDVHDLYEGGIKLPRDVISTIIPLPVIKELYRTDGQHILKFPQPHVVQVSQSAWMTDEEFAREMIAGVNPCVIRGLEEFPPKSNLDPAIYGDQSSKITADSLDLDGYTMDEALGSRRLFMLDYHDIFMPYVRQINQLNSAKTYATRTILFLREDGTLKPVAIELSLPHSAGDLSAAVSQVVLPAKEGVESTIWLLAKAYVIVNDSCYHQLMSHWLNTHAAMEPFVIATHRHLSVLHPIYKLLTPHYRNNMNINALARQSLINANGIIETTFLPSKYSVEMSSAVYKNWVFTDQALPADLIKRGVAIKDPSTPHGVRLLIEDYPYAADGLEIWAAIKTWVQEYVPLYYARDDDVKNDSELQHWWKEAVEKGHGDLKDKPWWPKLQTLEDLVEVCLIIIWIASALHAAVNFGQYPYGGLIMNRPTASRRLLPEKGTPEYEEMINNHEKAYLRTITSKLPTLISLSVIEILSTHASDEVYLGQRDNPHWTSDSKALQAFQKFGNKLKEIEEKLVRRNNDPSLQGNRLGPVQLPYTLLYPSSEEGLTFRGIPNSISI
# Key:
# AOS [1] = target: T1, AOS (Parthenium argentatum, UniProt Q40778); assay: Fluorescence spectroscopy of rubber particles incubated with AOS inhibitors; assay type: biochemical, guayule; design: from tissue; host or cells: washed rubber particles of guayule, carrying the endogenous AOS; settings: native rubber particles incubated with 1 mM inhibitor
# T1 sequence (Q40778 1-473): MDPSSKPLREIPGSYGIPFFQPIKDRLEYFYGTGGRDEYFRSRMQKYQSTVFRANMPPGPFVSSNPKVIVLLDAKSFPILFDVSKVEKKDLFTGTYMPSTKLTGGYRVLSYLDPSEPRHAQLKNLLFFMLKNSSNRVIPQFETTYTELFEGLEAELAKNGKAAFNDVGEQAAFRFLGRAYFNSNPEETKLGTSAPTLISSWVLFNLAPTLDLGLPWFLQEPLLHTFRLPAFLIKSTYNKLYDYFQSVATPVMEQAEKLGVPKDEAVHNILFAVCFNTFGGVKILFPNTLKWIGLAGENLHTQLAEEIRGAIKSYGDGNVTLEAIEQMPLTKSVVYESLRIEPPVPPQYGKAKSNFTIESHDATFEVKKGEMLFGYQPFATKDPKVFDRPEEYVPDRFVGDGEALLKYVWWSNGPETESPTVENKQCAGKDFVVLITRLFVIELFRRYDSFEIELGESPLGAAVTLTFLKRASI
# Method: Rubber particle suspensions containing approximately 5×10^10 particles ml^-1 or 100 μg μl^-1 rubber were extracted for lipids and analyzed according to Yao et al., J Cell Biochem 51: 488-494 (1993); Eldred, Anal. Biochem. 64: 23-36 (1987), Malshet et al., Lipids 9: 328-332 (1974) and above (see sec. 8.1) using a FluoroMax spectrofluoromoeter (JY/SPEX Instruments SA, Inc.) with an excitation maxima of 300 nm and an emission maxima of 405 nm. Background fluorescence was automatically subtracted. […] The effect of pH on relative fluorescence spectroscopy was performed. The effect of pH on relative fluorescence intensities was also determined on lipids extracted from rubber particle lipids according to Malshet et al., Lipids 9: 328-332 (1974).
# AOS [2] = target: T1, AOS; assay: Superoxide/colorimetry (riboflavin/TEMED/NBT) assay; settings: for NBT color after superoxide: rubber particles incubated with inhibitor
# Method: A 1-5 μl suspension of fatty acids or rubber particles (at 100 μg μl^-1) was added directly to 200 μl 50 mM potassium phosphate buffer, pH 8.0 containing 2.8 μM riboflavin and 28 mM tetramethyllethylenediamine (TEMED). […] Superoxide was generated by exposing the combined particles and riboflavin/TEMED solution to light, provided by a 100 W bulb, spaced 30 cm from the suspension, for 10 minutes. The degree of reduction was then determined by adding 200 μl 50 mM potassium phosphate buffer, pH 8.0 containing 2.45 mM nitroblue tetrazolium (NBT) and monitoring for 10 min. Reduction of NBT caused a yellow to blue color change. The effect of CO on AOS inhibition and its reversal by exposure to high light was tested by placing the CO and O2 treated suspension directly in front of a water-cooled, slide projector lamp and exposing the mixture to bright light for 1, 5 or 10 min before performing the NBT assay.
# If SOD is present, NBT remains yellow. […] If AOS were active, rubber particles would be protected from peroxidation and NBT would be reduced by superoxide resulting in a blue color. However, if AOS were inactivated, then rubber particles would act as a sink for superoxide and NBT would not be reduced to blue tetrasodium,or would be reduced at a slower rate. For this assay to work, endogenous SOD must not be present in rubber particles.
# rubber transferase (RuT) = assay: Rubber transferase assay in washed rubber particles ([14C]-IPP incorporation); assay type: biochemical, guayule; design: inhibition of RuT activity / inhibition of rubber biosynthesis: concentration or dose not given beside the values
# Method: RuT assays were performed according to Cornish and Backhaus, Phytochemistry 29: 3809-3813 (1990) using a final reaction volume of 500 μl containing, at final concentration, 3.5 mM MgCl2, 2.5 mM MnCl2 26.7 μM FPP, 85 μM IPP and 1.48 μCi[^14 C]-IPP (sp. act. 57 mCi mM^-1 NEN DuPont) in 50 mM potassium phosphate buffer, pH 8.0. The reaction was initiated by the addition of 200 μl of fresh, triple-washed rubber particle suspensions containing 10-20 mg rubber. Control reactions were made to test IPP incorporation into rubber by omitting FPP or adding 50 mM EDTA to the reaction (Cornish and Backhaus, Phytochem. 29: 3809-3813 (1990)). To control AOS activity, one or more of the following was added to the reaction mix (final concentration): 0.5 to 2 mM SA, 0.5 to 2 mM ASA, 11.2 μM riboflavin plus 11.2 mM TEMED, 0.003% H2 O2, 2.0 U type II porcine pancreatic lipase (Sigma #L-3126) or 9450 U type V soybean lipoxygenase (Sigma #L-6632). These additions were made directly to the washed rubber particles and incubated for 20 min before adding to them to the reaction mix. In reactions that required dark conditions (to prevent the formation of superoxide), assay tubes were foil wrapped. […] H2 O2 was added directly to the particles and incubated for at least 20 min before adding SA or ASA. All RuT assays were run at 15° C. for 16 hours and activity was determined according to Cornish and Backhaus, Phytochemistry 29: 3809-3813 (1990) using liquid scintillation spectroscopy with toluene-based scintillant.
# [3] = system: linoleic acid conjugated dienes; assay: UV spectrophotometry of superoxide-induced linoleic acid conjugated dienes (A234); assay type: biochemical, guayule; settings: AOS preincubated with 1 mM ASA, then linoleic acid + riboflavin/TEMED
# Method: Likewise, the effect of superoxide, produced by the riboflavin/TEMED mixture and light, on lipid peroxidation was determined. […] The mixture was exposed to light and scanned in a UV spectrophotometer at 200 to 300 nm at 10 sec intervals for 2 minutes and again at 5 and 10 min. The effect of AOS on superoxide-inducedlinoleic hydroperoxides was determined using partially pure AOS solubilized from fresh rubber particles using the CHAPS extraction and filtration procedure (Pan et al., J Biol Chem 270: 8487-8494, 1995), which removed all remaining rubber. One μg partially pure AOS was added to oxidized linoleic acid and UV scanned at 2 minute intervals.
# This mixture was scanned at A234 followed by addition of riboflavin/TEMED and exposure to 10 min. of light, to produce superoxide. The mixture was rescanned at 10 min intervals.
# AOS [4] = target: T1, AOS; settings: for fluorescence over 24 hr, AOS inhibited and antioxidant present: rubber particles, 1 mM ASA plus 1% antioxidant
# AOS [5] = target: T1, AOS; assay: Conjugated dienes in lipids extracted from rubber particles incubated with H2O2 (A234); assay type: biochemical, guayule; design: from tissue; host or cells: washed rubber particles of guayule, carrying the endogenous AOS; settings: 1 mM inhibitor, 0.05% H2O2
# From the text: Lipids from these particles were extracted and analyzed spectrophotometrically at 234 nm according to Aust, Lipid peroxidation, In: Greenwald R (ed) CRC Handbook of Methods for Oxygen Radical Research, CRC Press, Boca Raton, pp. 203-207 (1985).
# [6] = salicylate + H2O2 in place of superoxide
# [7] = salicylate + non-photoreduced riboflavin/TEMED (no superoxide), compared to controls
# [8] = salicylate + superoxide (riboflavin/TEMED plus light)
molecule,measurement,setting,value
"O=C(O)c1cc(S(=O)(=O)O)ccc1O [5SSA, 5-sulfosalicylic acid]",fluorescence of rubber particles,AOS [1],did not fluoresce
"[C-]#[O+] [CO, carbon monoxide]",restoration of AOS activity,"AOS [2]; CO-bound-AOS in rubber particles, high light 1 min",partial restoration of AOS
same,restoration of AOS activity,"AOS [2]; CO-bound-AOS in rubber particles, high light 5 min",maximum restoration of AOS activity
same,AOS activity,"AOS [2]; CO-bound-AOS in rubber particles, more than 5 min high light",reduction in AOS activity
same,NBT color when CO inhibition was reversed by strong light,"AOS [2]; CO-treated rubber particles, strong light",grayish yellow
same,NBT color after superoxide,AOS [2],yellow
"O=C(O)c1ccccc1O [SA, salicylic acid]",NBT color after superoxide,AOS [2],yellow
same,drop in RuT activity,"rubber transferase (RuT); 1 mM SA alone, 960 min",10-30%
same,RuT activity,"rubber transferase (RuT); 1 mM SA alone, Experiment 1",402.5 ± 18.2 nmol IPP mg^-1 dry rubber 16 hr^-1
same,RuT activity,"rubber transferase (RuT); 1 mM SA alone, Experiment 2",320.4 ± 4.5 nmol IPP mg^-1 dry rubber 16 hr^-1
same,RuT activity,"rubber transferase (RuT); 1 mM SA alone, Experiment 3",315.9 ± 10.6 nmol IPP mg^-1 dry rubber 16 hr^-1
same,RuT activity,"rubber transferase (RuT); 1 mM inhibitor, riboflavin/TEMED + light (superoxide)",74.2 ± 1.29 nmol IPP mg^-1 dry rubber 16 hr^-1 and 98.3 ± 1.56 nmol IPP mg^-1 dry rubber 16 hr^-1 and 74.2 ± 1.3 nmol IPP mg^-1 dry rubber 16 hr^-1
same,RuT activity,"rubber transferase (RuT); 1.5 mM inhibitor, no superoxide (dark)",236.7 ± 3.0 nmol IPP mg^-1 dry rubber 16 h
same,RuT activity,"rubber transferase (RuT); 1.5 mM inhibitor, superoxide (light)",105.3 ± 3.2 nmol IPP mg^-1 dry rubber 16 h
same,RuT activity,"rubber transferase (RuT); 2 mM SA, photo reduced and non-photo reduced riboflavin/TEMED",severely inhibited
same,RuT activity,"rubber transferase (RuT); 2 mM inhibitor, no superoxide (dark)",25.1 ± 1.2 nmol IPP mg^-1 dry rubber 16 h
same,RuT activity,"rubber transferase (RuT); 2 mM inhibitor, superoxide (light)",18.5 ± 9.24 nmol IPP mg^-1 dry rubber 16 hr^-1
same,inhibition of RuT activity,rubber transferase (RuT); [6],89%
same,inhibition of RuT activity,rubber transferase (RuT); [7],20%
same,inhibition of RuT activity,rubber transferase (RuT); [8],88%
same,fluorescence of rubber particles,AOS [1],Identical fluorescence patterns
"CC(=O)Oc1ccccc1C(=O)O [ASA, acetylsalicylic acid]","A234 on exposure to superoxide, AOS first incubated with inhibitor",[3],notable increase in A234
same,NBT color after superoxide,AOS [2],yellow
same,fluorescence over 24 hr,AOS [4]; rubber particles in presence of 1 mM ASA,fluorescence increased up to 12 hours and then plateaued
same,RuT activity,"rubber transferase (RuT); 0.5 mM inhibitor, riboflavin/TEMED + dark (no superoxide)",599.3 ± 11.8 nmol IPP mg^-1 dry rubber 16 hr^-1
same,RuT activity,"rubber transferase (RuT); 1 mM inhibitor, riboflavin/TEMED + dark (no superoxide)",421.6 ± 105.4 nmol IPP mg^-1 dry rubber 16 hr^-1
same,inhibition of RuT activity,rubber transferase (RuT); [6],89%
same,inhibition of RuT activity,rubber transferase (RuT); [7],20%
same,inhibition of RuT activity,rubber transferase (RuT); [8],88%
same,fluorescence of rubber particles,AOS [1],striking increase in fluorescence
same,conjugated diene formation in extracted lipids (A234),AOS [5],Conjugated dienes formed only when AOS was inhibited by ASA in the presence of H2 O2
Cc1cc(C(C)(C)C)c(O)c(C(C)(C)C)c1 [BHT],"fluorescence over 24 hr, AOS inhibited and antioxidant present",AOS [4],slight increase in fluorescence
"OCc1ccccc1O[C@@H]1O[C@H](CO)[C@@H](O)[C@H](O)[C@H]1O [SAL, salicin]",fluorescence of rubber particles,AOS [1],did not fluoresce
Cc1c(C)c2c(c(C)c1O)CCC(C)(CCCC(C)CCCC(C)CCCC(C)C)O2 (stereo not drawn) [α-tocopherol],"fluorescence over 24 hr, AOS inhibited and antioxidant present",AOS [4],slight increase in fluorescence
B1,RuT activity,rubber transferase (RuT); lipoxygenase alone,activity similar to positive controls
same,RuT activity,"rubber transferase (RuT); lipoxygenase alone, listed as Lipoxygenase",did not appear to affect RuT activity
same,inhibition of rubber biosynthesis,rubber transferase (RuT); lipoxygenase treatment and AOS inhibition,30%
